Measurements reported in publication PMC12720774, “Detergents alter the stability and lipid binding properties of the CD1d immunoreceptor” (Protein Science : A Publication of the Protein Society, 2025).
Where “and” joins values, the source holds several entries; their conditions need not be identical. Equal entries are not always repeated. Entries after “also recorded” stand apart in the source; their conditions may differ. Structures can show the parent of a compound that is named as a salt. Where two headings read alike, the source gives them in different places.

Tests used:
[1] = molecular target: T1, recombinant human CD1d ectodomain/β2m complex (hCD1d) (Homo sapiens, UniProt P15813); test: Intrinsic tryptophan fluorescence (ITF) binding assay
T1 construct: TEV protease cleavage site ENLYFQS (C); BirA biotinylation site (C); His7 (C); made in house; host or cells: TurboCHO cells (GenScript)
T1 sequence (P15813 whole entry, looked up, the tested form may be a part, one chain of several): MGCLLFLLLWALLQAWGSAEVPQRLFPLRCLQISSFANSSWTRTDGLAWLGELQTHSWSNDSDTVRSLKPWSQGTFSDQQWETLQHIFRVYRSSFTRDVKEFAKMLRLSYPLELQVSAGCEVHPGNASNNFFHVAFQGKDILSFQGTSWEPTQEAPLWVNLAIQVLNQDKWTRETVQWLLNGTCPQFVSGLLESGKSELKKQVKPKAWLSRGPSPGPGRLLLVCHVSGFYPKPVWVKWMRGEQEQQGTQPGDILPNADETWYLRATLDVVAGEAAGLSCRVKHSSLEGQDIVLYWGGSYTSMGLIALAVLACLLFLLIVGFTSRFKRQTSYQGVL
Experimental: (§1) For ITF assays, the concentration of hCD1d was kept constant, and intrinsic Trp fluorescence (excitation at 285 nm, emission at 335 nm) was measured as a function of increasing detergent concentration (Fossum et al., [2023]) (Figure S2). The change in relative fluorescence intensity (F − F 0/F 0) provides an indication of binding. […] This was due to limited detergent solubility and decreased hCD1d stability in the presence of a large excess of detergent (see below). […] SDS was the exception, for which Trp fluorescence of hCD1d decreased with added detergent. This could indicate a unique conformational change or destabilization of the protein.
(§2) ITF spectra were recorded from 300 to 500 nm using a Horiba FL3‐21 Fluorometer with the excitation wavelength of 285 nm and excitation/emission slits of 6.2 nm. Fluorescence spectra of 50 to 100 nM hCD1d were acquired in the absence and presence of detergents in 1X PBS pH 7.4 at 25°C. Prior to data acquisition, hCD1d and detergent or lipid samples were incubated at 37°C overnight (~12 h) to simulate in vitro and in vivo loading conditions. […] For 18:1 LPC experiments, fluorescence spectra of 100 nM hCD1d were acquired in the absence and presence of 18:1 LPC in 1X PBS pH 7.4 at 25°C. […] For all ITF experiments, the change in fluorescence signal (F − F 0/F 0) was determined at 335 nm. Three replicates were performed, and data are presented as the mean ± standard deviation (n = 3). K D values were fitted with non‐linear regression in GraphPad Prism v10.1.

[2] = molecular target: T2, recombinant human CD1d ectodomain/β2m complex (hCD1d) (Homo sapiens, UniProt P15813+P61769); test: as above
T2 construct: TEV protease cleavage site ENLYFQS (C); BirA biotinylation site (C); His7 (C); made in house; host or cells: TurboCHO cells (GenScript)
T2 sequence (P61769+P15813 fused): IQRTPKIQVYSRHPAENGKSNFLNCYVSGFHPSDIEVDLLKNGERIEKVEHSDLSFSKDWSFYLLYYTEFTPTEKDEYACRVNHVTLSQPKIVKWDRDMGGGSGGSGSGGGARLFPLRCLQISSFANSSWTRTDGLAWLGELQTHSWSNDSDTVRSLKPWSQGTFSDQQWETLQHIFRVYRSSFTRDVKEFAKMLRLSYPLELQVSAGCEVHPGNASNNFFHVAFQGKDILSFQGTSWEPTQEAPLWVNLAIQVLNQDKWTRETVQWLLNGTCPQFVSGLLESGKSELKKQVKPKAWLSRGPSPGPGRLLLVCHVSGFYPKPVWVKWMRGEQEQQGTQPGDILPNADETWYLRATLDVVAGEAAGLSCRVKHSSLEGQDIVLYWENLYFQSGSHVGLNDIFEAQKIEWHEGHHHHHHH
Experimental: as §1, §2

[3] = molecular target: T3, AF647‐labeled hCD1d (Homo sapiens, UniProt P15813+P61769); test: Microscale thermophoresis (MST) binding assay
T3 construct: TEV protease cleavage site ENLYFQS (C); BirA biotinylation site (C); His7 (C); made in house; host or cells: TurboCHO cells (GenScript)
T3 sequence (P61769+P15813 fused): as above
How it was run: (§3)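 hCD1d was NHS-labeled with AF647 (~75% labeling) and held at 100 nM against rising detergent or 18:1 LPC in PBS pH 7.4. Samples were preincubated at 37°C overnight (~12 h) and read at 25°C with 20 s IR-on time. Data are mean ± SD, n = 3.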

[4] = molecular target: T4, AF647‐labeled hCD1d (Homo sapiens, UniProt P15813); test: Microscale thermophoresis (MST) binding assay
T4 construct: TEV protease cleavage site ENLYFQS (C); BirA biotinylation site (C); His7 (C); made in house; host or cells: TurboCHO cells (GenScript)
T4 sequence (P15813 whole entry, looked up): as the sequence (P15813 whole entry, looked up, the tested form may be a part, one chain of several) above
How it was run: as §3

[5] = detergent with 100 nM hCD1d, 25°C, 1X PBS pH 7.4, apparent, read-out: K D (ITF)
[6] = 0.001 M detergent, 100 nM AF647‐hCD1d
[7] = Figure 5B, detergent binding to hCD1d, read-out: MST - Kd (uM) average
[8] = detergent with 100 nM AF647‐labeled hCD1d, 25°C, apparent, read-out: K D (MST)

Structure (SMILES) | Kd [1, 5] [µM] | binding to hCD1d by ITF (in words) [2] | F-F0/F0 (rep 1-3) ([2]; 3.0518e-8 M detergent) | Fnorm (rep 1-3) ([3]; 3.05176e-8 M detergent) | Fnorm (rep 1-3) ([3]; 6.10352e-8 M detergent) | Fnorm (rep 1-3) ([3]; 1.2207e-7 M detergent) | Fnorm (rep 1-3) ([3]; 2.44141e-7 M detergent) | Fnorm (rep 1-3) ([3]; 4.88281e-7 M detergent) | Fnorm (rep 1-3) ([3]; 9.76563e-7 M detergent) | Fnorm (rep 1-3) ([3]; 1.95313e-6 M detergent) | Fnorm (rep 1-3) ([3]; 3.90625e-6 M detergent) | Fnorm (rep 1-3) ([3]; 7.8125e-6 M detergent) | Fnorm (rep 1-3) ([3]; 1.5625e-5 M detergent) | Fnorm (rep 1-3) ([3]; 3.125e-5 M detergent) | Fnorm (rep 1-3) ([3]; 6.25e-5 M detergent) | Fnorm (rep 1-3) ([3]; 0.000125 M detergent) | Fnorm (rep 1-3) ([3]; 0.00025 M detergent) | Fnorm (rep 1-3) ([3]; 0.0005 M detergent) | Fnorm (rep 1-3) [3, 6] | Kd [4, 7] [µM] | further results
CCCCCCCCCCCC[N+](C)(C)[O-] [LDAO, lauryldimethylamine‐N‐oxide] | > 10000 | observable binding | 0 | 814.692 ‰ and 814.467 ‰ and 814.489 ‰ | 817.057 ‰ and 815.567 ‰ and 813.955 ‰ | 815.153 ‰ and 815.733 ‰ and 813.219 ‰ | 820.838 ‰ and 814.573 ‰ and 816.312 ‰ | 815.87 ‰ and 817.501 ‰ and 814.61 ‰ | 819.746 ‰ and 816.532 ‰ and 815.008 ‰ | 821.408 ‰ and 818.645 ‰ and 816.968 ‰ | 814.412 ‰ and 819.336 ‰ and 814.062 ‰ | 818.471 ‰ and 817.826 ‰ and 814.305 ‰ | 818.754 ‰ and 820.576 ‰ and 816.619 ‰ | 825.871 ‰ and 823.407 ‰ and 821.261 ‰ | 827.8 ‰ and 827.022 ‰ and 819.019 ‰ | 840.896 ‰ and 830.059 ‰ and 833.855 ‰ | 853.04 ‰ and 842.052 ‰ and 840.306 ‰ | 856.938 ‰ and 859.889 ‰ and 860.509 ‰ | 853.851 ‰ and 856.381 ‰ and 852.289 ‰ | 157 | F-F0/F0 (rep 1-3) ([2]; 1.2207e-7 M detergent): 0.07548 and 0.05543 and 0.06384; F-F0/F0 (rep 1-3) ([2]; 4.8828e-7 M detergent): 0.06847 and 0.06205 and 0.06021; F-F0/F0 (rep 1-3) ([2]; 0.00025 M detergent): 0.1026 and 0.1076 and 0.1826; F-F0/F0 (rep 1-3) ([2]; 0.001 M detergent, 100 nM hCD1d): 0.4171 and 0.3604 and 0.4782; Kd [4, 8]: 157 ± 58.6 µM
CCCCCCCCO[C@@H]1O[C@H](CO)[C@@H](O)[C@H](O)[C@H]1O [ODG, n‐octyl‐β‐D‐glucopyranoside] | > 10000 | No significant binding; also recorded: minimal concentration‐dependent fluorescence changes | – | – | – | – | – | – | 842.328 ‰ and 845.864 ‰ and 848.262 ‰ | 843.26 ‰ and 846.856 ‰ and 850.006 ‰ | 843.026 ‰ and 843.822 ‰ and 848.605 ‰ | 843.431 ‰ and 845.217 ‰ and 850.155 ‰ | 843.398 ‰ and 846.496 ‰ and 848.167 ‰ | 843.251 ‰ and 846.684 ‰ and 848.174 ‰ | 844.533 ‰ and 847.002 ‰ and 847.612 ‰ | 844.648 ‰ and 847.89 ‰ and 849.866 ‰ | 846.571 ‰ and 844.204 ‰ and 849.145 ‰ | 846.14 ‰ and 848.026 ‰ and 848.57 ‰ | 845.727 ‰ and 847.773 ‰ and 849.553 ‰ | 6580 | F-F0/F0 (rep 1-3) ([2]; Concentration (M) 0.000977): 0; Fnorm (rep 1-3) ([3]; 0.002 M detergent): 847.311 ‰ and 851.671 ‰ and 850.904 ‰; Fnorm (rep 1-3) ([3]; 0.004 M detergent): 852.082 ‰ and 853.968 ‰ and 856.97 ‰; Fnorm (rep 1-3) ([3]; 0.008 M detergent): 864.475 ‰ and 866.313 ‰ and 870.655 ‰; Fnorm (rep 1-3) ([3]; 0.032 M detergent): 877.078 ‰ and 878.262 ‰ and 882.232 ‰; Kd [4, 8]: 6580 ± 186 µM
CCCCCCCCCCCCOS(=O)(=O)O [SDS, sodium dodecyl sulfate] | – | – | 0 | 794.561 ‰ and 796.538 ‰ and 787.226 ‰ | 793.573 ‰ and 796.65 ‰ and 788.808 ‰ | 795.629 ‰ and 795.536 ‰ and 789.052 ‰ | 792.166 ‰ and 793.398 ‰ and 784.145 ‰ | 790.042 ‰ and 793.566 ‰ and 789.803 ‰ | 792.907 ‰ and 794.378 ‰ and 788.273 ‰ | 792.77 ‰ and 792.711 ‰ and 788.545 ‰ | 794.169 ‰ and 793.199 ‰ and 789.062 ‰ | 793.805 ‰ and 798.209 ‰ and 788.93 ‰ | 795.098 ‰ and 796.977 ‰ and 790.788 ‰ | 796.19 ‰ and 799.152 ‰ and 792.387 ‰ | 800.38 ‰ and 802.553 ‰ and 795.217 ‰ | 801.158 ‰ and 800.337 ‰ and 800.706 ‰ | 801.719 ‰ and 804.302 ‰ and 803.561 ‰ | 816.347 ‰ and 820.909 ‰ and 814.082 ‰ | 825.168 ‰ and 825.899 ‰ and 822.956 ‰ | – | Kd ([1]; ITF - Kd (uM) average, Figure 5A, detergent binding to hCD1d): 35.5 µM; Kd ([1]; K D (ITF), detergent with 100 nM hCD1d, 25°C, 1X PBS pH 7.4, apparent): 35.5 ± 22.6 µM; binding to hCD1d by MST (in words) [3]: observable binding; Kd ([4]; K D (MST), detergent with 100 nM AF647‐labeled hCD1d, 25°C, apparent): > 10000 µM; Kd ([4]; K D, detergent class summary, approximate, collectively from ITF and MST): 10 to 500 µM
